A short description of data set [1]: Frontal chromatography retention on poly(bis-SorbPC)-coated silica. In kind it is physicochemical. As to conditions: PBS pH 7.4, 1 μL min^−1, 100 μM sample. Here is the method: (§1) Particles were packed in capillaries (50 μm or 75 μ[…].; Polymicro Technologies, Phoenix, Ariz.) against Microtight filter assemblies (Upchurch Scientific, Oak Harbor, Wash.). […] Frontal chromatography was performed using a lab-built instrument. Isocratic elution with PBS, pH 7.4, as the mobile phase utilized pressure driven flow that was applied by a Micropro Syringe Pumping System (Eldex, Napa, Calif.) connected to a […] injection valve (Valco, Houston, Tex.) with a 600 nL sample loop. […] The elution profile was monitored by ultraviolet absorbance detection (Model 500 Detector, ChromTech, Apple Valley, Minn.) at 220 nm. Signal from the detector was collected with an A/D converter (NI USB-6221, National Instruments, Austin, Tex.) and software written in LabVIEW (National Instruments). […] Statistical significance was determined using the two-tailed Student's t-test.

Data set [2] is described as follows: Frontal chromatography retention on bare silica. In kind it is physicochemical. To be noted: PBS pH 7.4, 1 μL min^−1, 100 μM sample. Here is the method: as §1
The nature of data set [3]: TIRFM measurement of Alexa 488-CTB binding to GM1 in polymerized bis-SorbPC PSLB. As to conditions: 1 mol % GM1; 1 h static incubation. Here is the method:
Phosphate buffered saline (PBS) was used to measure the background. Alexa 488-CTB solutions (500 μL) were then injected into the flow cell, sequentially from the lowest concentration to the highest. One hour of static incubation after each injection, the fluorescent signal from GM1-bound Alexa 488-CTB was then measured. The fluorescent signal from dissolved Alexa 488-CTB was negligible so the dissolved protein solution was not flushed from the cell before each measurement. The solid line is a fit of the data to the Hill equation.
CTB labeled with Alexa Fluor 488 (Alexa 488-CTB) was purchased from Invitrogen (Eugene, Oreg.). Total internal reflection fluorescence microscopy (TIRFM) was used to measure the binding of Alexa 488-CTB to 1 mol % GM1 in a polymerized bis-SorbPC PSLB. The TIRFM system has been described previously. The 488 nm line of an Ar^+ laser (Ion Laser Technology) was coupled into a fused silica slide using a 45° prism (Edmund Optics). […] One of the internal reflections at the upper surface of the slide was used to excite fluorescence from Alexa 488-CTB bound to the PSLB. The fluorescence signal was collected using a 4× objective, directed through a 535DF35 (Omega Optical, Brattleboro, Vt.) band pass filter, and detected using CCD (Andor Technology USA, South Windsor, Conn.).

Consider `CC(=O)Oc1ccccc1C(=O)O` [Acetylsalicylic acid], for which the Retention time in data set [1] was determined as 14.6 ± 0.6 min; in data set [2], 10.1 ± 0.2 min.

As for `O=C(O)c1ccccc1O` [Salicylic acid], the figures for the Retention time in data set [1] and in data set [2] were 14.3 ± 0.1 min and 9.7 ± 0.1 min, respectively.

Turning to `O=C(O)c1ccccc1` [Benzoic acid], the Retention time in data set [1] amounted to 14.1 ± 0.1 min; in data set [2], 9.6 ± 0.2 min.

Regarding “Alexa 488-CTB: CTB labeled with Alexa Fluor 488”, the “dissolved concentration that saturates the PSLB” value in data set [3] was “approximately 0.1 μM”.
